Values quoted from earlier work in US4323647A, “Steric hindrance enzyme immunoassay” (University of Miami, priority 1980, dated 1982).

Biological target: beta-galactosidase isolated from E. coli (Escherichia coli, UniProt P00722)
Conditions: potent competitive inhibitor; Lai, et al., Biophys. Res. Comm. 54: 463-468 (1973)

Chain of beta-galactosidase isolated from E. coli (P00722 2-1024 limits assumed): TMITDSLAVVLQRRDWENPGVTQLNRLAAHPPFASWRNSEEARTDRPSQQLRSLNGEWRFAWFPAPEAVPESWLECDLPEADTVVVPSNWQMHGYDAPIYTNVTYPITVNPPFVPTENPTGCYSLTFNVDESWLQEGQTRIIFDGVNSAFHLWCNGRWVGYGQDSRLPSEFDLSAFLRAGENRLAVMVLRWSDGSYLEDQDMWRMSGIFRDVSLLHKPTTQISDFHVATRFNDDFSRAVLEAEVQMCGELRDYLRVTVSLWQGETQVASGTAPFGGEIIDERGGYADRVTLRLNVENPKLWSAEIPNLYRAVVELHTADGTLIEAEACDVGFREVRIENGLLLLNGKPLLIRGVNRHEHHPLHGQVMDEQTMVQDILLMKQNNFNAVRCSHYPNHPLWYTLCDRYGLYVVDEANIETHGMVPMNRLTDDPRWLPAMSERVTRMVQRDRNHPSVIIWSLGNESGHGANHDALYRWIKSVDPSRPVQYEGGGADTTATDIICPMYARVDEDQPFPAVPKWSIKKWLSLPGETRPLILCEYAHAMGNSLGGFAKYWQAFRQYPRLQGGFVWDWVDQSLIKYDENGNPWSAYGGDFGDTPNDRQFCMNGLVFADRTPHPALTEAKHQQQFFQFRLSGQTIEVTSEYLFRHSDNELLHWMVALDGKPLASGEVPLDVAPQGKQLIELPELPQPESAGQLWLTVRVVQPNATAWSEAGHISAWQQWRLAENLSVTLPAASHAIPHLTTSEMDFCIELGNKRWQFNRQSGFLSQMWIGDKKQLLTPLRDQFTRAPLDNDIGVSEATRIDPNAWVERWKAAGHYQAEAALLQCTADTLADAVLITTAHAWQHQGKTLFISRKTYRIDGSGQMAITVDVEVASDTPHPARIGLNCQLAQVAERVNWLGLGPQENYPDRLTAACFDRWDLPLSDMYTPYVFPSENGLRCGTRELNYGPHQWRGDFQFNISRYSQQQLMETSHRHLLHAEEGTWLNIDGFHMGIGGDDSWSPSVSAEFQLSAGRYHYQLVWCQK

SMILES: N[C@@H]1O[C@H](CO)[C@H](O)[C@H](O)[C@H]1O [beta-D-galactosylamine]
- Ki: 225 µM
